For assay [1], the system named is type 1 E. coli. The assay can be described thus: Hemagglutination assay with guinea pig red blood cells (GPRBC). Type of assay: cell-based. The protocol:
(§1) Sixty E. coli strains were isolated from the urine of human and animal (dog and cat) patients suffering from urinary tract infections. After determining the fimbrial type of each strain, 5 strains specific for P-type fimbriae, and 5 strains specific for type 1 fimbriae were selected for use in bioactivity testing. Bacterial strains were subcultured in tryptose broth at 37° C. for 16 h. P-type strains were transferred to colonization factor agar (CFA) plates and grown overnight at 37° C. to enhance production of P-type fimbriae. Strains were harvested by centrifugation, washed once and suspended in phosphate-buffered saline solution (PBS) at pH 7.0 at a concentration of 5×10^8 bacteria/mL. […] Therefore, mixtures of P-type strains were used to test for P-type bioactivity, and mixtures of type 1 strains were used to test for type 1 bioactivity. Strains were kept frozen at −70° C. in tryptose broth (30% glycerol) for long-term storage.
The inhibition of adherence of type 1 E. coli by the various fractions was tested according to hemagglutination assay for P-type bacteria, except guinea pig red blood cells (GPRBC) were used in place of HRBC. The results are shown in Table 4 under the column GPRBC using the same scoring system as described above.

Assay [2] deals with P-type E. coli. Put plainly: Latex bead agglutination test (beads coated with synthetic P-type receptor analog Galα1→4Galβ). The following applies: for Inhibition of agglutination, P-Receptor: P-type E. coli, latex beads coated with P-type receptor analog. It is filed as cell-based. As to the method:
as §1
The fractions were also tested in the P-type receptor bioassay of de Man et al., 1987, J. Clin. Microbiol. 25(2):401-406. Dried Fractions 1-8 were dissolved in PBS, neutralized, and mixed with P-type bacterial suspensions (30 μl fraction to 10 μl of bacterial suspension) on a polystyrene 24-well plate and incubated for 10 min on a rotary shaker. Latex beads coated with a synthetic P-type receptor analog (Galα1→4Galβ) (BACH test, Kabi Vitrum, Stockholm, Sweden) suspended in water at a concentration of 5×10^9 beads/mL were added (10 μl) to each well and incubation continued for 20 min on the rotary shaker. […] (4) uncoated beads and test fractions, and (5) bacteria, coated beads and epicatechin trimer. The control to show agglutination consisted of bacteria and coated beads.

In assay [3] the test system is P-type E. coli. Put plainly: Hemagglutination assay: inhibition of P-type E. coli-induced agglutination of A+ human red blood cells (HRBC). The following applies: for Inhibition of agglutination, HRBC: P-type E. coli, A+ human red blood cells, neutral pH. Type of assay: cell-based. As to the method: as §1
The test system of a further assay is type 1-fimbriated E coli. The assay can be described thus: Yeast (Saccharomyces cerevisiae) agglutination assay. It is filed as cell-based. The following applies: for Inhibition of agglutination, Yeast Cells: type 1 E. coli, S. cerevisiae. The protocol: as §1
The fractions were also tested in the bioassay of Eschdat et al., 1978, Biochem. Biophys. Res. Commmun. 85:1551-1559, using yeast cells. Yeast cultures of Saccharomyces cerevisiae were grown in Sabouraud dextrose broth and incubated for 24 hr at 38° C. Yeast cells were transferred to Sabouraud dextrose agar plates and grown under the same conditions. Cells were harvested, washed and suspended in PBS at a concentration of 4×10^8 cells/mL. Ten μl of type 1-fimbriated E coli were mixed with neutralized test fractions (30 μl) in a 24-well polystyrene plate and incubated for 10 min on a rotary shaker. Yeast cell suspension (10 μl) was added to each well and incubated for 5 min. […] The control to show agglutination consisted of bacteria and yeast. Tie results are shown in Table 4 under the column “Yeast Cells” using the same scoring system as described above.

Assay [4] has as its system type 1 E. coli. The following applies: cited from earlier work.

Consider `O=C[C@@H](O)[C@@H](O)[C@H](O)[C@H](O)CO` [1% D-Mannose, D-Mannose], for which the “Inhibition of agglutination, GPRBC” value in the assay with type 1 E. coli [1] is “+”. The “Inhibition of agglutination, P-Receptor” value with P-type E. coli [2] is listed as “−”. The “Inhibition of agglutination, HRBC” value in the assay on P-type E. coli [3] is listed as “−”. Further, the “Agglutination in control well” value in the assay on type 1-fimbriated E coli (bacteria, yeast and 1% D-mannose) is given as “no agglutination or complete inhibition of agglutination”. Further, the “Inhibition of agglutination, Yeast Cells” value with type 1-fimbriated E coli is given as “+”.

Regarding `O=C(CO)[C@@H](O)[C@H](O)[C@H](O)CO` [fructose], in the assay with type 1 E. coli [4], the “Inhibition of type 1 E. coli to uroepithelial cells” value is on record as “responsible for the inhibition”.

Consider Epicatechin Trimer, for which, in the assay with type 1 E. coli [1], the “Inhibition of agglutination, GPRBC” value is “−”. In addition, the “Inhibition of agglutination, P-Receptor” value with P-type E. coli [2] was “+”. The “Agglutination in control well” value with P-type E. coli [2] (bacteria, coated beads and standard) was “no agglutination or complete inhibition of agglutination”; in the assay with P-type E. coli [3] (bacteria, HRBC and standard) it was “no agglutination or complete inhibition of agglutination”. Moreover, the “Inhibition of agglutination, HRBC” value in the assay on P-type E. coli [3] is on record as “+”. In addition, the “Inhibition of agglutination, Yeast Cells” value in the assay on type 1-fimbriated E coli is on record as “−”.
